Source: publication PMC5104480 (PLoS ONE, 2016)

Key:
[1] = test system: HeLa—UGT1A9 cells; assay: Glucuronide excretion at different substrate concentrations in HeLa—UGT1A9 cells; assay type: cell-based; conditions: for substrate concentration at which the excretion rate reached a peak: diosmetin or chrysoeriol 1.25-40 μM
Experimental: (§1) The excretion rates, glucuronides intracellular, Glucuronides excretion, the clearance of efflux transporter (CL) and the fraction of the metabolized dose (fmet) experiments were calculated as described in detail previously.

[2] = test system: human liver microsomes (HLMs); assay: Glucuronidation kinetics of diosmetin and chrysoeriol by HLMs; assay type: in vitro ADME; conditions: for Kinetic profile of glucuronide formation: Eadie—Hofstee plots; for Km / Vmax: formation of the named glucuronide from diosmetin or chrysoeriol
Experimental: (§2) All metabolism studies in vitro were approved by the First Hospital Affiliated to Shihezi University Research Ethics Committee. The glucuronidation assay was performed as described in previous publications. […] The incubation volumes were 120 μL, and the total organic solvent content was 1%. […] The reactions were initiated by adding UDPGA (3.5 mM) at 37°C and then allowed to stand for 30 min in a water bath. These reactions were terminated by adding 60 μL ice-cold acetonitrile containing the IS (25 nM tilianin). […] All experiments were performed in triplicate. The enzyme kinetic parameters were obtained by fitting kinetic models to the experimental data using GraphPad Prism version 5.04 for Windows (GraphPad Software Inc., San Diego, CA, USA). The best model was selected based on visual inspection of the Eadie-Hofstee plots, the calculated r^2 values, and corrected Akaike’s information criterion. The HLMs or human expressed UGT enzymes were employed for kinetic studies at concentrations ranging from 0.0021 mg/mL to 0.0053 mg/mL. The rates of the glucuronidation were fitted to the following equations: V = Cmetabolite/t×Cprotein Where V (nmol/mg/min) is the rates of the glucuronidation, Cmetabolite (μM) and Cprotein (mg/mL) respectively are the concentration of the metabolite and the reaction protein, t (min) is the reaction time. Model selection was based on visual inspection of Eadie—Hofstee plots and it was reported in our previous study. In brief, if the Eadie—Hofstee plot was linear, formation rates (V) of glucuronides at different substrate concentrations (C) were fitted to the standard Eq (1): V = Vmax×C/Km+C (1) where Km is the Michaelis-Menten constant and Vmax is the maximum rate of glucuronidation. The intrinsic clearance (CLint) was derived by Vmax/Km. […] The intrinsic clearance (CLint) was derived by Vmax1/Km1.

[3] = as above; assay type: in vitro ADME, human; conditions: human, liver microsomes, pH 7.4, Vmax/Km, formation of the named glucuronide
Experimental: as §2

[4] = biological target: T1, BCRP (Homo sapiens, UniProt Q9UNQ0); assay: Effect of BCRP inhibitor Ko143 on glucuronide excretion in HeLa—UGT1A9 cells; assay type: cell-based
T1 construct: endogenous in cells; host or cells: HeLa cells stably transfected with UGT1A9 (from Dr. Ming Hu, University of Houston)
T1 sequence (Q9UNQ0 1-655): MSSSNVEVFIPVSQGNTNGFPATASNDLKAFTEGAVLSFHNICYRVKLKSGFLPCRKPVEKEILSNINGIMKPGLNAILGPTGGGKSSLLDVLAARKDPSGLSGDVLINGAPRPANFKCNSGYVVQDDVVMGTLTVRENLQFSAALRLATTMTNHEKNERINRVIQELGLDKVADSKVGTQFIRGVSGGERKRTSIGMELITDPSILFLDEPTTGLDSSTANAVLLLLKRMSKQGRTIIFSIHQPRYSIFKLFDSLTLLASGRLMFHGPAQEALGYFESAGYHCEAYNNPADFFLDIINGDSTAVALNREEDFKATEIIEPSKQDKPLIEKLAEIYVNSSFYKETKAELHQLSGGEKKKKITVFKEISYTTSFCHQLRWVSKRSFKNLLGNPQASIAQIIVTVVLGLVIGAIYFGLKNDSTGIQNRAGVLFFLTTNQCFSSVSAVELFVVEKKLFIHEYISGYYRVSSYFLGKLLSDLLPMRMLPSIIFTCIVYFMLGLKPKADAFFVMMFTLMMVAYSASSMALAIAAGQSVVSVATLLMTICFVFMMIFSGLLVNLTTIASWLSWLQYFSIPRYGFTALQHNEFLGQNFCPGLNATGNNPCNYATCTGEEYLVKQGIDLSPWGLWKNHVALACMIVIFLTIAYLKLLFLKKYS
Experimental: as §1

[5] = biological target: T2, UGT1A1 (Homo sapiens, UniProt P22309); assay: Glucuronidation kinetics by human expressed UGT1A1; assay type: in vitro ADME
T2 construct: purchased BD Biosciences (Woburn, MA, USA)
T2 sequence (P22309 26-533): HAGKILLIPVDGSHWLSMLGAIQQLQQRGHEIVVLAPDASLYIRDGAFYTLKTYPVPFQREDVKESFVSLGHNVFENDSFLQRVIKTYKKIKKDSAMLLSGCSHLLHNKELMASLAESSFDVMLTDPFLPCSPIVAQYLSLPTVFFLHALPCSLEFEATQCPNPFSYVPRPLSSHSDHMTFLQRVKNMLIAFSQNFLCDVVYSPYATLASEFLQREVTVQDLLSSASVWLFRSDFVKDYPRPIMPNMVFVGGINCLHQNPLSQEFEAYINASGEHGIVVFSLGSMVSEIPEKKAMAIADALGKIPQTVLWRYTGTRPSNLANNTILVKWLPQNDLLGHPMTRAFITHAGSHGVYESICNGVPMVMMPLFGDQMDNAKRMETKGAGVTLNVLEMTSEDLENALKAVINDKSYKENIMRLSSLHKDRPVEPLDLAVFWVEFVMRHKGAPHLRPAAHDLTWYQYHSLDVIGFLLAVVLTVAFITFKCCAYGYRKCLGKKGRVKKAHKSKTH
Experimental: as §2

[6] = biological target: T3, UGT1A9 (Homo sapiens, UniProt O60656); assay: Glucuronidation by human expressed UGT1A9 (screening and kinetics); assay type: in vitro ADME; conditions: for Kinetic profile of glucuronide formation: Eadie—Hofstee plots; for microsomal CLint: human, expressed (recombinant) human UGT1A9, pH 7.4, Vmax/Km; for Vmax: substrate diosmetin (Dio-3′-G) or chrysoeriol (Chr-7-G)
T3 construct: purchased BD Biosciences (Woburn, MA, USA)
T3 sequence (O60656 26-530): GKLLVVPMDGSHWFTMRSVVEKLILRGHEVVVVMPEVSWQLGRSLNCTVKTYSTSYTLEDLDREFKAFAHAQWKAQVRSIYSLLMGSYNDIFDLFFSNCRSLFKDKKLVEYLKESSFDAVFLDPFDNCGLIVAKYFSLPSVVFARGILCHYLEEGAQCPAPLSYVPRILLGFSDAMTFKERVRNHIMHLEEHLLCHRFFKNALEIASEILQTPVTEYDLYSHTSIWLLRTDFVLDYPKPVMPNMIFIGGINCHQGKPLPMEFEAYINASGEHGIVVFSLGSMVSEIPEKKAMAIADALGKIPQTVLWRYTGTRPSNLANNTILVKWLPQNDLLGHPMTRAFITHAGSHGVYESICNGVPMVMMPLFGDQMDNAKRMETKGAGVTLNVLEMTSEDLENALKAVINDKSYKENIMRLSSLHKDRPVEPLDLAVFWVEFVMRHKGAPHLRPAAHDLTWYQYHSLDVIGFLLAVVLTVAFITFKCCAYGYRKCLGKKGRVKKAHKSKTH
Experimental: as §2, with “Vmax1/Km1. The method of this study as described in detail previously. […] The incubation conditions were as follows: protein concentration: 0.0053 mg/mL; temperature of water: 37°C; shaker speed: 50 rpm; reaction time: 30 min. After incubation, all samples were pretreated as described above and analyzed by UHPLC—MS/MS.” for “Vmax1/Km1.”

[7] = biological target: T4, UGT1A6 (Homo sapiens, UniProt P19224); assay: Glucuronidation by human expressed UGT1A6 (screening and kinetics); assay type: in vitro ADME
T4 construct: purchased BD Biosciences (Woburn, MA, USA)
T4 sequence (P19224 27-532): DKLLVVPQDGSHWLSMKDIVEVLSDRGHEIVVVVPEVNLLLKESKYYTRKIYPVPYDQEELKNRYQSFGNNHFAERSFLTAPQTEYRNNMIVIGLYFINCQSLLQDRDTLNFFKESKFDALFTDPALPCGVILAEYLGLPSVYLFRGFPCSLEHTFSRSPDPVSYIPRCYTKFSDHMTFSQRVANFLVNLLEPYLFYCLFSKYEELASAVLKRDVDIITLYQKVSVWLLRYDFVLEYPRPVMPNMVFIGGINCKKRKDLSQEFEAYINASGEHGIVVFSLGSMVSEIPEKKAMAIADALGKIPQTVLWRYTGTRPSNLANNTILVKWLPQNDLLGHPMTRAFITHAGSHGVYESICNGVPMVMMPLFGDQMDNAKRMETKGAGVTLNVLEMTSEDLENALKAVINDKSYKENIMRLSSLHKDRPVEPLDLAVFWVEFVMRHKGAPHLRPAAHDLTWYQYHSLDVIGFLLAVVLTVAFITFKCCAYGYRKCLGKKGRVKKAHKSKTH
Experimental: as §2, with “Vmax1/Km1. The method of this study as described in detail previously. […] After incubation, all samples were pretreated as described above and analyzed by UHPLC—MS/MS.” for “Vmax1/Km1.”

[8] = 5 μM Ko143, 2.5 μM diosmetin or chrysoeriol
[9] = 10 μM Ko143, 2.5 μM diosmetin or chrysoeriol

substrate concentration at which fmet reached a peak ([1]; chrysoeriol 1.25-40 μM) [µM] | substrate concentration at which the excretion rate reached a peak [1] [µM] | Km [2] [µM] | microsomal CLint [3] [µL/min/mg] | increase of total intracellular amount of glucuronide compared with the control [4, 8] [fold] | increase of total intracellular amount of glucuronide compared with the control [4, 9] [fold] | microsomal CLint ([5]; human, expressed (recombinant) human UGT1A1, pH 7.4, Vmax/Km) [µL/min/mg] | Vmax ([5]; substrate chrysoeriol) [nmol/mg/min] | microsomal CLint [6] [µL/min/mg] | Vmax [6] [nmol/mg/min] | microsomal CLint ([7]; human, expressed (recombinant) human UGT1A6, pH 7.4, Vmax/Km) [µL/min/mg] | Vmax ([7]; substrate diosmetin) [nmol/mg/min] | Structure (SMILES) | Kinetic profile of glucuronide formation [2] | Vmax [2] [nmol/mg/min] | Kinetic profile of glucuronide formation ([5]; Eadie—Hofstee plots) | Kinetic profile of glucuronide formation [6] | Kinetic profile of glucuronide formation ([7]; Eadie—Hofstee plots)
2.5 | 2.5 | 0.15 ± 0.03 | 1270 | 1.3 | 1.8 | 2260 | 0.63 ± 0.06 |  |  |  |  | COc1cc(-c2cc(=O)c3c(O)cc(O)cc3o2)ccc1O[C@@H]1O[C@H](C(=O)O)[C@@H](O)[C@H](O)[C@H]1O [Chr-4′-G, chrysoeriol-4′-O-glucuronide] | substrate inhibition profiles | 0.20 ± 0.01 | substrate inhibition kinetic characteristics |  | 
 | 2.5 | 3.83 ± 0.55 | 40 | 1.3 | 1.7 |  |  | 480 | 0.12 ± 0.01 |  |  | COc1cc(-c2cc(=O)c3c(O)cc(O[C@@H]4O[C@H](C(=O)O)[C@@H](O)[C@H](O)[C@H]4O)cc3o2)ccc1O [Chr-7-G, chrysoeriol-7-O-glucuronide] | classic Michaelis—Menten kinetics | 0.15 ± 0.01 |  | classic Michaelis-Menten kinetic characteristics | 
 | 2.5 | 0.19 ± 0.02 | 6250 | 1.3 | 1.8 |  |  | 9520 | 4.27 ± 0.13 |  |  | COc1ccc(-c2cc(=O)c3c(O)cc(O)cc3o2)cc1O[C@@H]1O[C@H](C(=O)O)[C@@H](O)[C@H](O)[C@H]1O [Dio-3′-G, diosmetin-3′-O-glucuronide] | classic Michaelis—Menten kinetics | 1.16 ± 0.03 |  | classic Michaelis-Menten kinetic characteristics | 
 | 10 | 4.66 ± 0.72 | 130 | 1.1 | 1.5 |  |  |  |  | 300 | 0.92 ± 0.06 | COc1ccc(-c2cc(=O)c3c(O)cc(O[C@@H]4O[C@H](C(=O)O)[C@@H](O)[C@H](O)[C@H]4O)cc3o2)cc1O [Dio-7-G, Diosmetin-7-O-glucuronide] | substrate inhibition profiles | 0.61 ± 0.05 |  |  | substrate inhibition kinetic characteristics
